Data as given in patent US20180160709A1, “bitter taste removing preparation and method” (priority 2016, published 2018).

Assay: In vitro membrane dialysis: bonding between bitter ingredients and proteins
Type: binding
Conditions: among whey protein, milk powder, chicken ovalbumin, bovine serum albumin
Protocol: The possible hydrophobic bonding between bitter ingredients RO and protein molecules can be explored by using membrane dialysis:
Dialysis bag was purchased from Beijing Scientan science and technology company, molecular weight range 8-14 KD. The bag was immersed in 10 mL water in a beaker. The pore size on the membrane inhibited the protein molecules from penetrating.
Into the first group (control samples) bags added in the sophora flavescens, gentian, and scutellaria decoctions and Berberine in aqueous solution respectively, 0.2 mL each, and diluted with water to 2 mL total volume each. To simulate the Chinese medicine, in the 4 medicine decoctions used as sample and control sample, there was no additive and without any post processing.
In the second group of 4×5 bags, four different protein powders were added respectively: whey protein, milk powder, chicken ovalbumin, bovine serum albumin, 5 bags for each protein, 400 mg powder in each bag. As the last step of sample preparation, 2 mL of 1/10 diluted decoction solutions were added into the protein bags, 4 different protein bags for each medicine decoction to add in. Into the remaining set of 4 different protein bags from above, 2 ml water was added instead without any medicine decoction. […]
Scheduled sampling from the 10 mL water outside the bag, and followed by HPLC quantitative analysis. […]

Substance: bovine serum albumin: protein powder, 400 mg per dialysis bag
- encapsulation or hydrophobic bonding ability: strongest
